The subject of data set [1] is MCF7. Nature of the data set: Antiproliferative activity against human MCF7 cells assessed as reduction in cell viability after 72 hrs by Celltiter-Glo assay. Format: functional, cell-based. The following applies: MCF7, 72 h.
In data set [2] the target is T1, Estrogen receptor (Homo sapiens, UniProt P03372).
T1 sequence (P03372 whole entry): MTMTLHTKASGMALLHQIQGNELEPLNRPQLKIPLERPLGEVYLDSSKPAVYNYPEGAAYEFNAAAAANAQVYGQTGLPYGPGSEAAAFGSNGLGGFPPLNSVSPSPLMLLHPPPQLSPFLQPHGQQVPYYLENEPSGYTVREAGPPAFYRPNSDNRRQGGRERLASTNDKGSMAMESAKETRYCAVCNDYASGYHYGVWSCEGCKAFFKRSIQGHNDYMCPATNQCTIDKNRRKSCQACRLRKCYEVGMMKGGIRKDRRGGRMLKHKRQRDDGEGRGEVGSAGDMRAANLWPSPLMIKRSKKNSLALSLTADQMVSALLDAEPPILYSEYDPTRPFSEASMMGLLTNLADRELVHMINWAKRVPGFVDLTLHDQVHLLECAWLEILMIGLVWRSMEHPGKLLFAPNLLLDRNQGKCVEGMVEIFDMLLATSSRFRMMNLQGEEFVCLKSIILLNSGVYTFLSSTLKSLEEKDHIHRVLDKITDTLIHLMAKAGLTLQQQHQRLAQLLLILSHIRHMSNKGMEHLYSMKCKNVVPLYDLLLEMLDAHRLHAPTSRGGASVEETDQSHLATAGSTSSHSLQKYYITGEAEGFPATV
Description: Induction of ERalpha degradation in human MCF7 cells after 4 hrs by FITC/Hoechst staining based immunofluorescence imaging analysis. The format is cell-based.

Another data set relates to T47D. Description: Antiproliferative activity against human T47D cells assessed as reduction in cell viability. The format is functional, cell-based.
Data set [3] is described as follows: Clearance in rat. Format: ADME. The following applies: in vivo.
Data set [4] can be described thus: Oral bioavailability in rat. The following applies: in vivo.
The nature of data set [5]: Clearance in dog. The format is ADME, Canis lupus familiaris. The following applies: in vivo.
The nature of data set [6]: Oral bioavailability in dog. The following applies: in vivo.
Data set [7] is described as follows: Clearance in cynomolgus monkey. The format is ADME, Macaca fascicularis. The following applies: in vivo.
Data set [8] in a line: Oral bioavailability in cynomolgus monkey. The following applies: in vivo.
Data set [9] concerns the target T1, Estrogen receptor. Nature of the data set: Agonist activity at ERalpha in human Ishikawa cells after 72 hrs by alkaline phosphatase assay. The format is cell-based.
Data set [10] concerns the target T2, Estrogen receptor (Rattus norvegicus) (UniProt P06211).
T2 sequence (whole entry): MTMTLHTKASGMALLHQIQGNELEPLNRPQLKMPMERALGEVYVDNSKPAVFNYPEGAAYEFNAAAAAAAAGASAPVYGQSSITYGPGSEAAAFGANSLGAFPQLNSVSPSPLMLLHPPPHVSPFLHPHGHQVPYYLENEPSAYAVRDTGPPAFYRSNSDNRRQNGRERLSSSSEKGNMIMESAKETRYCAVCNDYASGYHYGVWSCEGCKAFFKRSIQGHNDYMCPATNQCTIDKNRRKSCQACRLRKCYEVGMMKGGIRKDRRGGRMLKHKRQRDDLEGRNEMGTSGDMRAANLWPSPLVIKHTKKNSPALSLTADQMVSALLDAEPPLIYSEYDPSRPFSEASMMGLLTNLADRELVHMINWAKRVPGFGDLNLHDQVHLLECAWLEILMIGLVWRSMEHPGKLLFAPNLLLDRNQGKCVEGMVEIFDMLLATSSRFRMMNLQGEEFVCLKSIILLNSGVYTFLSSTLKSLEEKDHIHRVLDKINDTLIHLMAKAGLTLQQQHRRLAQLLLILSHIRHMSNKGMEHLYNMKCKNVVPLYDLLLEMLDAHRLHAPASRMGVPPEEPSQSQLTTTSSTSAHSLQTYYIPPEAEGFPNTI
Nature of the data set: In vivo antagonist activity at ERalpha in CRL:CD(SD) rat assessed as inhibition of estradiol-induced increase in uterine wet weight at 10 mg/kg, po administered as MCT suspension for 3 days and measured at 4 hrs post last dose on day 4. The format is functional, organism-based.

Data set [11] relates to MCF7. Description: Antitumor activity against human MCF7 cells expressing wild-type ER xenografted in po dosed CRL:NU-Foxn1 mouse administered qd for 28 days in presence of 17-beta-estradiol pellets and measured twice per week by caliper method. Format: functional, organism-based.
Data set [12] has as its system MCF7. Description: Antitumor activity against human MCF7 cells harboring ER Y537S mutant xenografted in po dosed CRL:NU-Foxn1 mouse assessed as tumor regression administered qd for 21 days in presence of 17-beta estradiol pellets and measured twice per week by caliper method. The format is functional, organism-based.
The subject of data set [13] is MCF7. Description: Antitumor activity against human MCF7 cells harboring ER Y537S mutant xenografted in CRL:NU-Foxn1 mouse assessed as tumor regression at 1 to 30 mg/kg, po qd for 21 days in presence of 17-beta estradiol pellets and measured twice per week by caliper method. Format: functional, organism-based.

Consider 19 compounds from ChEMBL document CHEMBL4616717, “Discovery of GNE-149 as a Full Antagonist and Efficient Degrader of Estrogen Receptor alpha for ER+ Breast Cancer” (ACS Med Chem Lett, 2020).

SMILES strings stand for the structures. Calls of active or inactive are those of the source. The rule behind the calls is not given here.

For the compound `C[C@@H]1Cc2c([nH]c3ccccc23)[C@@H](c2c(F)cc(OCCN3CC[C@@H](CF)C3)cc2F)N1CC(C)(C)F`, the IC50 in the data set with MCF7 [1] was 1.5 nM.

With `C[C@@H]1Cc2c([nH]c3ccccc23)[C@@H](c2c(F)cc(OC3CN(CCF)C3)cc2F)N1CC(C)(C)F`, the IC50 at Estrogen receptor [2] turned out to be 0.18 nM; in the data set on MCF7 [1], 1.3 nM.

Turning to `C[C@@H]1Cc2c([nH]c3ccccc23)[C@@H](c2c(F)cc(OC[C@H](C)N3CC[C@@H](CF)C3)cc2F)N1CC(C)(C)F`, the IC50 in the data set on MCF7 [1] was found to be 1.7 nM.

On to `C#CCN1CC(Oc2cc(F)c([C@@H]3c4[nH]c5ccccc5c4C[C@@H](C)N3CC(C)(C)F)c(F)c2)C1`, for which the 50% inhibitory concentration (IC50) is 0.083 nM at Estrogen receptor [2] and 0.82 nM in the data set on MCF7 [1].

In the case of `C[C@@H]1Cc2c([nH]c3ccccc23)[C@@H](c2c(F)cc(OC3CN(CCCCF)C3)cc2F)N1CC(C)(C)F`, the values for the IC50 against Estrogen receptor [2] and with MCF7 [1] were 0.39 nM and 8.5 nM, respectively.

Take `C[C@@H]1Cc2c([nH]c3ccccc23)[C@@H](c2c(F)cc(OC3CN(CC4(CF)CC4)C3)cc2F)N1CC(C)(C)F`: the IC50 against Estrogen receptor [2] is 0.52 nM; with MCF7 [1], 5.6 nM.

Turning to `C[C@@H]1Cc2c([nH]c3ccccc23)[C@@H](c2c(F)cc(OCCN3CC(C(F)F)C3)cc2F)N1CC(C)(C)F`, in the data set on MCF7 [1], the IC50 is 2.3 nM.

As to `C=CCN1CC(Oc2cc(F)c([C@@H]3c4[nH]c5ccccc5c4C[C@@H](C)N3CC(C)(C)F)c(F)c2)C1`, the IC50 at Estrogen receptor [2] stood at 0.15 nM; in the data set on MCF7 [1] it was 0.84 nM.

Consider `C[C@@H]1Cc2c([nH]c3ccccc23)[C@@H](c2c(F)cc(OC3CN(C[C@H]4C[C@@H]4F)C3)cc2F)N1CC(C)(C)F`, for which the figures for the IC50 against Estrogen receptor [2] and with MCF7 [1] were 0.55 nM and 6.4 nM, respectively.

`CC1CN(CCOc2cc(F)c([C@@H]3c4[nH]c5ccccc5c4C[C@@H](C)N3CC(C)(C)F)c(F)c2)C1`: the IC50 against Estrogen receptor [2] came out at 0.19 nM; with MCF7 [1], 0.9 nM.

In the case of `C[C@@H]1Cc2c([nH]c3ccccc23)[C@@H](c2c(F)cc(OCCN3CC(F)(CF)C3)cc2F)N1CC(C)(C)F`, the figures for the IC50 against Estrogen receptor [2] and in the data set with MCF7 [1] were 0.38 nM and 2.7 nM, respectively.

Take `C[C@@H]1Cc2c([nH]c3ccccc23)[C@@H](c2c(F)cc(OCCN3CC(CF)C3)cc2F)N1CC(C)(C)F`: the IC50 with MCF7 [1] was 1.6 nM.

With `C[C@@H]1Cc2c([nH]c3ccccc23)[C@@H](c2c(F)cc(OC3CN(CCCCl)C3)cc2F)N1CC(C)(C)F`, the IC50 with MCF7 [1] is 3 nM.

On to `CCCN1CC(Oc2cc(F)c([C@@H]3c4[nH]c5ccccc5c4C[C@@H](C)N3CC(C)(C)F)c(F)c2)C1`, for which, in the data set on MCF7 [1], the IC50 was 1.5 nM.

Turning to `C[C@@H]1Cc2c([nH]c3ccccc23)[C@@H](c2c(F)cc(OC3CN(CCCF)C3)cc2F)N1CC(C)(C)F`, the IC50 in the data set with MCF7 [1] was 0.66 nM; in the data set on T47D it was 0.69 nM. In addition, the clearance is 19 mL/min/kg in [3], 8 mL/min/kg in [5] and 13 mL/min/kg in data set [7]. For the same compound, the bioavailability is 31% in [4], 49% in data set [6] and 28% in [8]. The Activity entry on Estrogen receptor [9] was “Not Active”; in the data set with MCF7 [11], “Dose-dependent effect”; with MCF7 [12] it was “Dose-dependent effect”. Besides, the inhibition entry in [10] was “Active”. The result in the data set with MCF7 [13] was Active.

`C[C@]12CC[C@@H]3c4ccc(O)cc4C[C@@H](CCCCCCCCC[S+]([O-])CCCC(F)(F)C(F)(F)F)[C@H]3[C@@H]1CC[C@@H]2O` (stereo not given in full) [FULVESTRANT]: the IC50 in the data set on MCF7 [1] amounted to 2.6 nM; in the data set on T47D, 3 nM. Further, the Activity result at Estrogen receptor [9] is on record as “Not Active”.

Take `CC/C(=C(/c1ccc(/C=C/C(=O)O)cc1)c1ccc2[nH]ncc2c1)c1ccc(F)cc1Cl` [BRILANESTRANT]: the IC50 in the data set with MCF7 [1] was determined as 44 nM; in the data set with T47D, 27 nM.

Take `CC1=C(c2cccc(O)c2)[C@H](c2ccc(OCCN3CC(CF)C3)cc2)Oc2ccc(O)cc21`: the IC50 was found to be 0.3 nM in the data set on MCF7 [1] and 0.29 nM in the data set with T47D. Moreover, the clearance in data set [3] turned out to be 81 mL/min/kg; in data set [5] it was 24 mL/min/kg; in data set [7], 17 mL/min/kg. The bioavailability in data set [6] stood at 23%; in data set [8], 5%. At Estrogen receptor [9], the Activity entry is recorded as “Not Active”.

Take `C[C@@H]1Cc2c([nH]c3ccccc23)[C@@H](c2c(F)cc(OC3CN(C[C@H]4C[C@H]4F)C3)cc2F)N1CC(C)(C)F`: the 50% inhibitory concentration (IC50) at Estrogen receptor [2] came out at 0.56 nM; in the data set with MCF7 [1], 1.8 nM.
